Assay results from US20100144599A1, “VEGF PATHWAY BLOCKADE” (Bristol-Myers Squibb Company, priority 2007, published 2010).

Assays:
[1] = Bhuyan et al., Cancer Res. 42 (1982); cited from earlier work
[2] = Toxicity study in the Colo205 colon carcinoma model; assay type: in vivo; conditions: sunitinib 60 mg/kg/day, sorafenib 80 mg/kg/day
Experimental: An additional study was performed using the Colo205 colon carcinoma model to test the toxicity of sunitinib (60 mg/kg/day), sorafenib (80 mg/kg/day), and Comp-I (30 mg/kg/day) treatment.

[3] = system: Colo205 colon carcinoma; assay: Tumor inhibition, Colo-205 colon carcinoma xenogeneic s.c. model; assay type: in vivo, Human; conditions: 60 mg/kg, treatment started at average tumor size 200 mm^3, Kaplan Meier (FIG. 3)
Experimental: (§1) The anti-tumor effect of Comp-I was compared to bevacizumab treatment in a model of colon (Colo205 colon carcinoma) and brain (U87 glioblastoma) tumors.
The anti-tumor effect of Comp-I was also compared to treatment with sunitinib and sorafenib in a Colo205 colon carcinoma model. FIG. 3 depicts a Kaplan Meier Survival analysis on the length of time for individual tumors to reach a given size. […] All three compounds were administered at 60 mg/kg.

[4] = system: U87 glioblastoma; assay: Tumor inhibition, U87 glioblastoma xenograft model; assay type: in vivo, Human; conditions: nude male mice, 30 mg/kg Comp-I or 5 mg/kg bevacizumab bi-weekly, 20 days (FIG. 2)
Experimental: The effect of Comp-I and bevacizumab treatment was assessed in a U87 xenograft model of human glioblastoma (FIG. 2). Briefly, nude male mice, 6-7 weeks of age, were implanted with U87 glioblastoma tumor cells (5×10^6) subcutaneously on the right flank. Tumor growth was monitored 2 times per week using caliper measurement. Drug treatment was initiated after the tumors reached a size of at least 50 mm^3.Tumor growth inhibition over vehicle was greater in Comp-I (56%) as compared to bevacizumab (35%) treatment.
as §1

| Compound | potency in vitro relative to commonly used anti-cancer drugs, such as doxorubicin, methotrexate and vincristine [1] | mice survived [2] | tumors remaining under 500 mm^3 [3] | Tumor growth inhibition over vehicle [4] [%] |
| --- | --- | --- | --- | --- |
| COc1c(O)c2c(c3cc(C(=O)N4CCc5c4c(O)c(OC)c4[nH]c(C(=O)N6CC7CC78C6=CC(=O)c6[nH]cc(C)c68)cc54)[nH]c13)CCN2C(N)=O (stereo not drawn) [CC-1065] | about 1000 fold |  |  |  |
| CNC(=O)c1cc(Oc2ccc(NC(=O)Nc3ccc(Cl)c(C(F)(F)F)c3)cc2)ccn1 [sorafenib] |  | 14/15 | around 60% |  |
| CCN(CC)CCNC(=O)c1c(C)[nH]c(/C=C2\C(=O)Nc3ccc(F)cc32)c1C [sunitinib] |  | 12/15 | around 60% |  |
| bevacizumab |  |  |  | 35 |
